Target: CDK7 (Homo sapiens, UniProt P50613)
Experiment: LANCE TR-FRET in vitro kinase assay (U-Light-MBP peptide, […] ATP, […] min; […] at […] min, […] at […] min); bioTHZ1 competition pull-down target occupancy in MOLM13 cells
Assay type: biochemical

CDK7, sequence (P50613 2-346): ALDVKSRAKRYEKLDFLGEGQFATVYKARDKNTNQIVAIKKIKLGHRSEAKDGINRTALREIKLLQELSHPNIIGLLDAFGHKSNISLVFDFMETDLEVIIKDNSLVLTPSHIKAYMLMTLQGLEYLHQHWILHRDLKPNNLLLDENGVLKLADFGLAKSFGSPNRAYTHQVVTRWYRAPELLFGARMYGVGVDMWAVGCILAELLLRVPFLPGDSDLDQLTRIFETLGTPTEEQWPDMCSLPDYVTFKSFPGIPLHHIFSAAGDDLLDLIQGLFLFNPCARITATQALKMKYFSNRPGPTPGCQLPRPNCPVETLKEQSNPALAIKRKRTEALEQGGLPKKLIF

IC50: 0.9 nM
Substance: XL102

Reference: publication PMC10386772, “Novel covalent CDK7 inhibitor potently induces apoptosis in acute myeloid leukemia and synergizes with Venetoclax” (Journal of Experimental & Clinical Cancer Research : CR, 2023)
